Data: PMC3579855, “Characterization of DNA Topoisomerase-1 in Spodoptera exigua for Toxicity Evaluation of Camptothecin and Hydoxy-Camptothecin” (PLoS ONE, 2013)

Target: T1, DNA topoisomerase 1 (Topo1) (Spodoptera exigua, UniProt G1FWE7)
T1 construct: Topo70, N-terminally truncated, residues 337–930, GST fusion expressed in E. coli BL21 (DE3)
T1 sequence (G1FWE7 337-930): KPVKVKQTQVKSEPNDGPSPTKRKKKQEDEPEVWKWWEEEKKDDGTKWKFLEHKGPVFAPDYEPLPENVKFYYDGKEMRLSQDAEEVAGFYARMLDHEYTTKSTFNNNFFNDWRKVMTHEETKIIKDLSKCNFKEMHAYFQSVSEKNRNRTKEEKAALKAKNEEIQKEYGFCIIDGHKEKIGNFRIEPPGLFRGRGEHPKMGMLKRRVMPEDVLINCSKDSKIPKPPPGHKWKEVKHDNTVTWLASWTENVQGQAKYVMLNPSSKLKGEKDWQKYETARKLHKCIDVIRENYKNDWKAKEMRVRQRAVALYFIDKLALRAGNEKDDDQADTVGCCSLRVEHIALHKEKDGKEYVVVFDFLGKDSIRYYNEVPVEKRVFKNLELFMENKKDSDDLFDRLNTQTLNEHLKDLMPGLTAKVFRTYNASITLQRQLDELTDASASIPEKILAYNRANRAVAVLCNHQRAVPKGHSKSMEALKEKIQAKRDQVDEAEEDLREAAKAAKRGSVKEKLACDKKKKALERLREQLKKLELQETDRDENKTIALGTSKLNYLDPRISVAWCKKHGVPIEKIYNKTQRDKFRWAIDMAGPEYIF
Assay: pBR322 DNA relaxation assay with purified recombinant Topo1, agarose gel densitometry
Type: biochemical

Structure (SMILES)	EC50 [µM]
CC[C@@]1(O)C(=O)OCc2c1cc1n(c2=O)Cc2cc3ccccc3nc2-1 [CPT, Camptothecin]	4.42
CC[C@@]1(O)C(=O)OCc2c1cc1n(c2=O)Cc2cc3cc(O)ccc3nc2-1 [HCPT, hydroxy-camptothecin]	15.2
